Test results: patent publication US20240245806A1, “TREATMENT OF NEURODEGENERATIVE DISEASE USING CSA- AND INDY-TYPE COMPOUNDS” (BROWN UNIVERSITY, priority 2021, published 2024)
Entries after “also recorded” stand apart in the source; their conditions may differ.

Experiments:
zebrafish larvae [1] = assay: Behavioral screen of 190 FDA-approved drugs in 5-day-old zebrafish larvae (activity, optomotor and acoustic responses); assay type: in vivo, Danio rerio; details: 10 μM, 5 dpf larvae, vs DMSO
Excerpt: Zebrafish. The research project has been conducted in accordance with local and federal guidelines for ethical and humane use of animals and has been reviewed and approved by the Brown University Institutional Animal Care and Use Committee. Zebrafish (Danio rerio) embryos were collected and grown to larval stages as previously described. Pelkowski et al., Behav Brain Res 223, 135-144 (2011). Adult wild-type zebrafish are maintained at Brown University as a genetically-diverse outbred strain in a mixed male and female population. […] Embryos and larvae were kept on a 12 hour light/12 hour dark cycle and were randomly assigned to different experimental groups prior to experimental manipulation. The sex of embryos and larvae cannot be determined at such early stages because zebrafish use elusive polygenic factors for sex determination, and both males and females have juvenile ovaries between 2.5 and 4 weeks of development. Zebrafish larvae were imaged at 5 dpf when the larvae display a range of locomotor behaviors and consume nutrients available in the yolk sac. Clift et al., Zebrafish 11, 455-461 (2014). Larvae are approximately 4 mm long at the 5 dpf stage. Pharmacological treatments. Zebrafish larvae were treated with 190 FDA-approved compounds using a Tocris small-molecule library (Tocris Bioscience, Cat. No. 7200). […] Larvae were first treated in a Petri dish for 2 hours, transferred with the treatment solution to white 96-well ProxiPlates (PerkinElmer, 6006290) for 1 hour, and then imaged in the treatment solution for 3 hours. Imaging system. Zebrafish larvae were imaged in an imaging system that holds four 96-well plates for automated analysis of behavior in a 384-well format (FIG. 1). Briefly, the imaging system is housed in a 28.5° C. temperature-controlled cabinet where larvae in white 96-well ProxiPlates are placed onto a glass stage. Above the stage, a high-resolution camera (18-megapixel Canon EOS Rebel T6 with an EF-S 55-250 mm f/4.0-5.6 IS zoom lens) captures an image of the larvae in the four 96-well plates every 6 seconds. The camera is connected to a continuous power supply (Canon ACK-E10 AC Adapter) and controlled by a laptop computer using Canon's Remote Capture software (EOS Utility, version 3), which is included with the camera. Two small speakers (OfficeTec USB Computer Speakers Compact 2.0 System) were attached speaker-side down to the glass stage. Speakers were connected by USB to the laptop computer and set to maximum volume. […] Behavioral assay. Visual and acoustic stimuli are controlled by an automated 3-hour PowerPoint presentation that is shown to the larvae. […] Larvae were not exposed to visual stimuli and acoustic stimuli at the same time. The visual stimuli consisted of a series of moving lines that were red, green or blue. Prior studies have shown that zebrafish larvae will swim in the same direction as moving lines, a behavior that is called an optomotor response or OMR (19, 28). Our previously-developed assays for visually-guided behaviors indicate 5 dpf larvae consistently respond to 1 mm thick lines set 7 mm apart that move 7 mm per 8 seconds downwards or upwards, alternating direction in 10-minute periods (19). Additionally, the presentation included red lines that moved at a faster speed of 7 mm per 0.5 seconds (16× faster). […]

[2] = system: zebrafish embryos and larvae; assay: Developmental exposure (2-3, 3-4 or 4-5 dpf) of zebrafish to modulators of calcineurin signaling, behavior imaged at 5 dpf; assay type: in vivo
Description: Zebrafish. Adult wild type zebrafish (Danio rerio) are maintained at Brown University as a genetically-diverse outbred strain in a mixed male and female population. Zebrafish embryos were collected and grown to larval stages as described previously. Thorn et al., Sci Rep 9, 13989 (2019). Embryos from 0-3 days post-fertilization (dpf) and larvae from 3-5 dpf were kept on a 12 hour light/12 hour dark cycle at 28.5° C. in 2 L culture trays with egg water, containing 60 mg/L sea salt (Instant Ocean) and 0.25 mg/L methylene blue in deionized water. Zebrafish embryos and larvae were randomly assigned to different experimental groups prior to experimental manipulation. The sex of embryos and larvae cannot be determined at such early stages because zebrafish use elusive polygenic factors for sex determination, and both males and females have juvenile ovaries between 2.5 and 4 weeks of development. Liew et al., Brief Funct Genomics 13(2), 172-187 (2014). Zebrafish larvae were imaged at 5 dpf when they are approximately 4 mm long, display a range of locomotor behaviors and consume nutrients available in the yolk sac. Clift et al., Zebrafish 11(5), 455-461 (2014).
Pharmacological treatments. Zebrafish embryos and larvae were treated with 10 μM CsA (cyclosporin A, Enzo Life Sciences), 1 μM FK506 (tacrolimus, Enzo Life Sciences), 1 μM rapamycin (Santa Cruz Biotechnology), 5 μM proINDY (Tocris Bioscience) or co-treatments of either 10 μM CsA+5 μM proINDY or 1 μM FK506+5 μM proINDY. […] Clift et al., Behav Brain Res, 282, 117-124 (2015). […] Robinson et al., J Appl Toxicol 37(12), 1438-1447 (2017). […] All administered compounds were diluted in egg water from 1000× stocks dissolved in dimethyl sulfoxide (DMSO). The corresponding DMSO concentration (1 μl DMSO/ml egg water) was used as a vehicle control. Embryos and larvae were treated during one of the following developmental stages: 2-3, 3-4, or 4-5 dpf. The embryos and larvae were treated in 10 cm Petri dishes for 24 hours, rinsed three times with egg water, and then transferred to new Petri dishes with egg water. Larvae that were treated from 4-5 dpf were rinsed and kept in egg water for 3 hours prior to imaging, typically from 10 am to 1 pm. All treatment groups were imaged at 5 dpf in egg water. For imaging, larvae were transferred to white 96-well ProxiPlates (PerkinElmer, 6006290) and were imaged for 3 hours, typically from 1-4 pm (FIG. 12).
Imaging of zebrafish larvae. Zebrafish larvae were imaged in a 384-well imaging system as described previously. Thorn et al., Sci Rep 9, 13989 (2019). Briefly, four 96-well ProxiPlates were placed on a glass stage inside a temperature-controlled cabinet, set at 28.5° C. The upper shelf of the cabinet holds a high-resolution camera (18-megapixel Canon EOS Rebel T6 with an EF-S 55-250 mm f/4.0-5.6 IS zoom lens), connected to a continuous power supply (Canon ACK-E10 AC Adapter) and controlled by a laptop computer. Images are acquired using Canon's Remote Capture software (EOS Utility, version 3), which is included with the camera. Every 6 seconds, the camera acquires a high-resolution image of larvae in the microplates (FIG. 12). Two small speakers (OfficeTec USB Computer Speakers Compact 2.0 System) are located speaker-side down on the glass stage. Speakers were connected by USB to the laptop computer and set to maximum volume (85 dBA).
Behavioral assay. Larval behaviors were imaged for 3 hours, as described previously. Thorn et al., Sci Rep 9, 13989 (2019). […] The PowerPoint started with a light background for 60 minutes without visual or acoustic stimuli, followed by 80 minutes with visual stimuli, 10 minutes without stimuli, and 30 minutes with acoustic stimuli (FIG. 12). Larvae were not exposed to visual stimuli and acoustic stimuli at the same time. The visual stimuli consisted of a series of lines that moved upwards or downwards in the microplates, in a horizontal plane. […]

zebrafish larvae [3] = assay: Acute exposure of 5 dpf zebrafish larvae to modulators of calcineurin signaling, automated analysis of behavior; assay type: in vivo, Danio rerio
Description: Zebrafish larvae were treated at 5 dpf with various modulators of calcineurin signaling, starting 3 hours before imaging. The larvae were then imaged for a total of 3 hours using a behavioral assay with various visual and acoustic stimuli (FIG. 6). The behavioral assay started with a 1-hour period without stimuli, followed by 80 minutes with visual stimuli, 10 minutes without visual or acoustic stimuli, and 30 minutes with acoustic stimuli. Values of activity (% move) and position (% up) were averaged in individual larvae during 10-minute periods, for a total of 18 periods. These values were subsequently averaged between larvae in the same treatment group. We examined a total of 10 treatment groups. For clarity, only 3 treatment groups were graphed (FIG. 6), but all 10 treatment groups were analyzed in detail as shown in subsequent figures. […] The assay provides quantitative information on activity, visually-guided behaviors and acoustic startle responses.
To determine if larval zebrafish behavior is affected by modulation of calcineurin signaling, we imaged 5 day-old larvae in the following 10 treatment groups: 10 μM cyclosporine A (CsA), 1 μM tacrolimus (FK506), 5 or 10 μM proINDY, a combination of CsA+5 or 10 μM proINDY, or a combination of FK506+5 or 10 μM proINDY, DMSO as a vehicle control, and 1 μM rapamycin as a control for target specificity. Rapamycin and FK506 are both macrolide immunosuppressants with similar structures, however, rapamycin affects Target of Rapamycin (TOR) signaling instead of calcineurin signaling. Vellanki et al., Front Mol Biosci 7, 588913 (2020). The concentrations of CsA, FK506 and rapamycin were selected based on prior studies in zebrafish embryos and larvae. Clift et al., Behav Brain Res 282, 117-124 (2015). The two concentrations of proINDY, a membrane-permeable form of INDY (inhibitor of DYRK), were selected based on studies in cell lines and Xenopus embryos. Ogawa et al., Nat Commun 1, 86 (2010).
The research project has been conducted in accordance with local and federal guidelines for ethical and humane use of animals and has been reviewed and approved by the Brown University Institutional Animal Care and Use Committee. Zebrafish (Danio rerio) embryos were collected and grown to larval stages as previously described. Thorn et al., Sci Rep 9, 13989 (2019). Adult wild-type zebrafish are maintained at Brown University as a genetically-diverse outbred strain in a mixed male and female population. Zebrafish embryos from 0-3 days post-fertilization (dpf) and zebrafish larvae from 3-5 dpf were maintained at 28.5° C. in 2 L culture trays with egg water, containing 60 mg/L sea salt (Instant Ocean) and 0.25 mg/L methylene blue in deionized water. Embryos and larvae were kept on a 12 hour light/12 hour dark cycle and were randomly assigned to different experimental groups prior to experimental manipulation. The sex of embryos and larvae cannot be determined at such early stages because zebrafish use elusive polygenic factors for sex determination, and both males and females have juvenile ovaries between 2.5 and 4 weeks of development. Zebrafish larvae were imaged at 5 dpf when the larvae display a range of locomotor behaviors and consume nutrients available in the yolk sac. Larvae are approximately 4 mm long at the 5 dpf stage.
Cyclosporine (cyclosporin A, Enzo Life Sciences), FK506 (tacrolimus, Enzo Life Sciences), rapamycin (Santa Cruz Biotechnology) and proINDY (Tocris Bioscience) were diluted in egg water from 1000× stocks dissolved in dimethyl sulfoxide (DMSO). DMSO (1 μl/ml DMSO) was added to the single treatments and the corresponding DMSO concentration was used as a vehicle control for all solutions. Larvae were exposed at 5 dpf to treatment solutions or DMSO for a total of 6 hours. Larvae were first treated in a Petri dish for 2 hours, transferred with the treatment solution to white 96-well ProxiPlates (PerkinElmer, 6006290) for 1 hour, and then imaged in the treatment solution for 3 hours. […]

[4] = 5 μM proINDY, 5 dpf acute, vs DMSO
[5] = 5 dpf acute exposure, vs DMSO, 10 μM CsA, 1 μM FK506, 1 μM rapamycin, proINDY

Row | Structure (SMILES) | activity (zebrafish larvae [1]) | excitability (E) in response to acoustic stimuli at 1-second intervals (zebrafish larvae [1]) | optomotor response (OMR) (zebrafish larvae [1]) | larval survival ([2]; developmental exposures to 10 μM proINDY) | OMR RGB ([2]; exposure 2-3 dpf) | late activity (period 15) ([2]; exposure 2-3 dpf) | startle responses (20-second interval) ([2]; exposure 3-4 dpf) | OMR RGB ([2]; exposure 4-5 dpf) | late activity (period 15) ([2]; exposure 4-5 dpf) | early activity (first hour of imaging) (zebrafish larvae [3]; [4]) | late activity (period 15) (zebrafish larvae [3]; [4]) | late activity (period 15) (zebrafish larvae [3]; 10 μM proINDY, 5 dpf acute, vs DMSO) | optomotor response (OMR) (zebrafish larvae [3]; 5 dpf acute exposure, vs DMSO) | early activity (first hour of imaging) (zebrafish larvae [3]; [5]) | late activity (period 15) (zebrafish larvae [3]; [5]) | activity (zebrafish larvae [3]; 5 dpf acute exposure, vs DMSO, 10 μM CsA, 1 μM FK506, proINDY 5 or 10 μM) | optomotor response to fast red lines (zebrafish larvae [3]; 5 dpf acute, lines 16x faster) | excitability (acoustic stimuli at 1-second intervals) (zebrafish larvae [3]; 5 dpf acute, vs DMSO) | startle responses to acoustic stimuli at 20-second intervals (zebrafish larvae [3]; 5 dpf acute, vs DMSO) | optomotor response to red lines (zebrafish larvae [3]; 5 dpf acute, vs DMSO, proINDY 5 μM)
1 | CCCCC1=NC2(CCCC2)C(=O)N1Cc1ccc(-c2ccccc2-c2nnn[nH]2)cc1 [Irbesartan] | increased activity | did not increase excitability; also recorded: does not increase excitability | decreased optomotor responses |  |  |  |  |  |  |  |  |  |  |  |  |  |  |  |  | 
2 | Brc1c(NC2=NCCN2)ccc2nccnc12 [UK 14,304] | decrease in activity |  | increase in optomotor responses |  |  |  |  |  |  |  |  |  |  |  |  |  |  |  |  | 
3 | CCN1/C(=C/C(C)=O)Sc2ccc(OC(C)=O)cc21 [proINDY, ProINDY] |  |  |  | affected larval survival | decrease in OMR RGB | decreased activity | decrease startle responses | decrease in OMR RGB | increased activity | reduced early and late activity | reduced early and late activity | reduced late activity only | increased optomotor responses; also recorded: increase in the optomotor response | decrease in early activity | decreased activity | decreased activity; also recorded: decrease in activity | increase in the optomotor response | increased excitability | slightly elevated | increased optomotor response
